# Data: patent publication US20240197891A1, “PHARMACEUTICAL COMPOSITIONS COMPRISING POH DERIVATIVES” (UNIVERSITY OF SOUTHERN CALIFORNIA, priority 2021, published 2024)
# Key:
# IL-6 = test: Serum IL-6 following UV exposure; type: in vivo, mouse
# Description: SKH-1 hairless mice were treated with 10 mg/kg POH-LA conjugate freshly prepared daily. The POH-LA conjugate was formulated in glycerol:ethanol (90:10) while the control animals received the glycerol:ethanol vehicle only or the commercially available sunblock (Well & Good Sun Protection Wipes SPF 15). Additional test groups were treated with POH formulated in the glycerol:ethanol vehicle or linoleic acid formulated in the glycerol:ethanol vehicle. 50 μL of each formulation was placed on a area 1 cm^2 area that was exposed to the UV light. The mice were treated with their respective formulations after exposure to the UV light. In FIG. 22A, the mouse was treated with sunblock. In FIG. 22B, the mouse was treated with POH. In FIG. 22C, the mouse was treated with linoleic acid. In FIG. 22D, the mouse was treated with POH-LA conjugate. […] The POH-LA conjugate, POH or linoleic acid solutions were gently spread on the skin surface and allowed to air dry. The sunblock mouse was gently wiped on the exposure area with the sunblock towelette. This exposure and treatment went on for a maximum of 10 weeks. Throughout the experimental period the animals were photographed and weighed. At the end of the experimental period the mice were photographed and euthanized, followed by skin and blood collection. Blood was analyzed for markers of inflammation and DNA recovered from the exposed area of the skin and analyzed for markers of DNA damage.
# Furthermore, blood samples were taken from each mouse 4 hours after the last cutaneous treatment. About 0.5 mL of blood was collected by cardiac puncture […]. Serum was aliquoted in Eppendorf tubes and store at −80° C. as preparation for cytokine analyses. […]
# Mice were treated with 10 mg/kg POH-LA conjugate freshly prepared daily. […] Blood was analyzed for markers of inflammation and DNA recovered from the exposed area of the skin and analyzed for markers of DNA damage.
# [1] = test system: USC-04 glioma cancer stem cells; test: MTT cytotoxicity assay, USC-04 glioma cancer stem cells; type: cell-based; settings: USC-04; increasing concentrations (TMZ 0-400 uM; POH 0-2 mM)
# Source text: (§1) Cancer Lett. 2011 Mar. 28; 302(2):100-8.
# [2] = test system: TMZ sensitive (U251) cells; test: Colony forming assay, TMZ sensitive U251 cells; type: cell-based, human; settings: TMZ sensitive U251 cells
# Description: Colony forming assays were carried out after cells were treated with TMZ alone, POH alone, and the TMZ-POH conjugate. […] Cancer Lett. 2011 Mar. 28; 302(2):100-8.
# [3] = test system: USC-02 glioma cancer stem cells; test: MTT cytotoxicity assay, USC-02 glioma cancer stem cells; type: cell-based; settings: USC-02; increasing concentrations (TMZ 0-400 uM; POH 0-2 mM)
# Source text: as §1
# [4] = test system: skin inflammation induced by asTPA; test: asTPA-induced skin inflammation in mice; type: in vivo, mouse; settings: topical, 3 days pretreatment plus 7 days asTPA, glycerol:ethanol (90:10)
# Description: A first group of mice were pre-treated with a solution of 50 microliters (μL) of a conjugate of POH and linoleic acid (e.g., linoleoyl ester of POH) in a vehicle of a glycerol:ethanol (90:10) mixture. The POH-linoleic acid conjugate solution was applied on the hip flank of the mice for a period of 3 days. A second, control group of mice were treated solely with the glycerol:ethanol (90:10) vehicle.
# After pre-treatment, skin inflammation was induced on the first and second groups of mice by daily cutaneous application of an acetonic solution of 12-0-Tetradecanoylphorbol-13-acetate (asTPA) (which is a known irritant) to the backs of the mice over seven days. The asTPA was not applied to a further control group. To facilitate application of the asTPA, mice were anaesthetized by inhalation of isofluorane. 100 microliters of asTPA (corresponding to 20 micrograms (μg) of TPA) was then applied onto the skin of the mice. Upon evaporation of the asTPA, the mice were returned to their cages.
# During the seven-day period in which the first and second groups of mice were subjected to application of asTPA, the first group continued to receive treatment of the POH-linoleic acid conjugate and vehicle solution, and the second group continued to receive treatment of the vehicle. At the end of the seven-day period, the mice were photographed.
SMILES,IL-6 levels (IL-6),cytotoxicity (MTT) [1],cytotoxicity (colony forming assay) [2],cytotoxicity (MTT) [3],skin appearance where asTPA was applied [4]
"C=C(C)[C@@H]1CC=C(CO)CC1 [POH, perillyl alcohol]",17.9 ± 2.8 pg/mL,demonstrated cytotoxicity,demonstrated cytotoxicity,demonstrated cytotoxicity,
"C=C(C)[C@@H]1CC=C(COC(=O)CCCCCCC/C=C\C/C=C\CCCCC)CC1 [POH-LA conjugate, Octadeca-9,12-dienoic acid 4-isopropenyl-cyclohex-1-enylmethyl ester]",15.2 ± 4.1 pg/mL,,,,no inflammation or flaking
